Active and inactive are the calls of the source. The calls are words filed in the database; no cut-off is given here.
Key:
MGC-803 [1] = test: Induction of cell cycle arrest in human MGC-803 cells assessed as increase in G2/M phase cells at 10 to 40 nmol/L incubated for 24 hrs by RNAse/propidium iodide staining based flow cytometry analysis relative to control; assay type: functional; conditions: dose 10-40 nmol/L, at 10 to 40 nM
MGC-803 [2] = test: Antiproliferative activity against human MGC-803 cells assessed as increase in nuclear brightness at 10 to 40 nmol/L incubated for 48 hrs by DAPI staining based fluorescence microscopic analysis; assay type: functional, cell-based; conditions: dose 10-40 nmol/L
[3] = Toxicity in BALB/c-nude mouse xenografted with human MGC-803 cells assessed as abnormal behaviour at 30 mg/kg/day, ip administered for 18 days; assay type: organism-based; conditions: in vivo, 432 h, time 18 day
MGC-803 [4] = test: Anti-migratory activity against human MGC-803 cells assessed as decrease in MMP-2 level at 10 to 40 nmol/L by Western blotting; assay type: functional, cell-based; conditions: dose 10-40 nmol/L
MGC-803 [5] = test: Antiproliferative activity against human MGC-803 cells assessed as inhibition of cell growth incubated for 48 hrs by MTT assay; assay type: functional, cell-based; conditions: MGC-803, 48 h
MGC-803 [6] = test: Induction of apoptosis in human MGC-803 cells assessed as caspase-7 cleavage at 10 to 40 nmol/L incubated for 48 hrs by Western blotting; assay type: functional, cell-based; conditions: dose 10-40 nmol/L
MGC-803 [7] = test: Induction of apoptosis in human MGC-803 cells assessed as necrotic cells at 10 nmol/L incubated for 48 hrs by Annexin V-FITC/propidium iodide staining based flow cytometer analysis (reference value: 0.32 %); assay type: functional
MGC-803 [8] = test: Anti-migratory activity against human MGC-803 cells assessed as inhibition of cell migration at 10 to 30 nmol/L measured for 48 hrs by crystal-violet staining based transwell migration assay; assay type: functional; conditions: dose 10-30 nmol/L
MGC-803 [9] = test: Antiproliferative activity against human MGC-803 cells assessed as increase in proportion of dead cells at 10 to 40 nmol/L incubated for 48 hrs by Calcein-AM/propidium iodide staining based fluorescence microscopic analysis; assay type: functional, cell-based; conditions: dose 10-40 nmol/L
MGC-803 [10] = test: Antiproliferative activity against human MGC-803 cells assessed as decrease in cell damage at 10 to 40 nmol/L incubated for 48 hrs by bright field microscopic analysis; assay type: functional, cell-based; conditions: dose 10-40 nmol/L
MGC-803 [11] = test: Induction of apoptosis in human MGC-803 cells assessed as early apoptotic cells at 20 nmol/L incubated for 48 hrs by Annexin V-FITC/propidium iodide staining based flow cytometer analysis (reference value: 4.38 %); assay type: functional
KYSE-30 = test: Antiproliferative activity against human KYSE-30 cells assessed as inhibition of cell growth incubated for 48 hrs by MTT assay; assay type: functional, cell-based; conditions: KYSE-30, 48 h
Tubulin (Homo sapiens) = Tubulin (Homo sapiens) (UniProt P68371+Q9H4B7+P0DPH7+P68366+Q13509+Q71U36+P04350+Q3ZCM7+P07437+P68363+Q9BQE3+Q6PEY2+Q13885+Q9BVA1+Q9BUF5); test: Inhibition of tubulin polymerization (unknown origin) at 3 uM by fluorescence plate reader analysis; assay type: protein-complex assay
MGC-803 [12] = test: Induction of apoptosis in human MGC-803 cells assessed as late apoptotic cells at 10 nmol/L incubated for 48 hrs by Annexin V-FITC/propidium iodide staining based flow cytometer analysis (reference value: 2.22 %); assay type: functional
MGC-803 [13] = test: Induction of apoptosis in human MGC-803 cells assessed as viable cells at 10 nmol/L incubated for 48 hrs by Annexin V-FITC/propidium iodide staining based flow cytometer analysis (reference value: 93.08 %); assay type: functional; conditions: read-out: Activity
MGC-803 [14] = test: Induction of apoptosis in human MGC-803 cells assessed as early apoptotic cells at 10 nmol/L incubated for 48 hrs by Annexin V-FITC/propidium iodide staining based flow cytometer analysis (reference value: 4.38 %); assay type: functional
MGC-803 [15] = test: Anti-migratory activity against human MGC-803 cells assessed as inhibition of cell migration at lower concentration measured for 48 hrs by wound healing assay; assay type: functional, cell-based
MGC-803 [16] = test: Antiproliferative activity against human MGC-803 cells assessed as reduction in cell viability incubated for 12 to 48 hrs by MTT assay; assay type: functional, cell-based; conditions: dose 20-80 µM, time 12-48 hrs

IC50 (MGC-803 [5]): 34 nM
inhibition (Tubulin (Homo sapiens)): Active
Compound: COc1ccc2c(c1)CCCN2c1cc(=O)oc2ccccc12
Activity (MGC-803 [1]): 18%
Activity (MGC-803 [2]): Active
Activity [3]: Non-Toxic
Activity (MGC-803 [4]): Active
Activity (MGC-803 [6]): Active
Activity (MGC-803 [7]): 0.34%
Activity (MGC-803 [8]): Active
Activity (MGC-803 [9]): Active
Activity (MGC-803 [10]): Active
Activity (MGC-803 [11]): 9.14%
IC50 (KYSE-30): 190 nM
Activity (MGC-803 [12]): 2.8%
viability at 0.01 µM (MGC-803 [13]): 92.2%
Activity (MGC-803 [14]): 4.68%
Activity (MGC-803 [15]): Active
Activity (MGC-803 [16]): Dose-Dependent Effect

— ChEMBL document CHEMBL5518178 (Eur J Med Chem, 2024)
